Data: BindingDB's records for patent US20240352000 (Korea Research Institute of Chemical Technology, 2024)

Assays:
[1] = target: T1, Epidermal growth factor receptor [DEL746-750,T790M] (Homo sapiens, UniProt P00533, DEL746-750/T790M); assay: Measurement of Inhibitory Ability of the Compounds Represented by Formula 1 According to the Present Invention Against Wild Type EGFR and EGFR Mutants
T1 construct: gene EGFR
Procedure: (§1) An experiment to measure the activity of the compounds of the present invention against EGFR mutant enzymes was performed as follows using the HTRF system sold by Cisbio. For the EGFR del19/T790M mutant enzyme, a recombinant protein provided by Carna Biosciences was purchased and used, and for the EGFR del19/T790M/C797S mutant enzyme, a protein provided by SignalChem was purchased and used as an enzyme source.The composition of the assay buffer used for measuring the activity was 50 mM Tris-HCl pH 7.5, 100 mM NaCl, 7.5 mM MgCl2, 3 mM KCl, 0.01% Tween 20, 0.1% BSA, and 1 mM DTT. Here, an enzyme reaction was performed using […] and a peptide substrate labeled with biotin at a concentration of 0.5 mM. Analysis of the inhibitory effect of the compounds against the EGFR activity was conducted according to the following analysis reaction recipe.Component 1: 4 μL of an EGFR mutant enzymeComponent 2: 2 μL of a compound solutionComponent 3: 4 μL of ATP and a peptide labeled with biotinThe enzyme reaction was started by first mixing Component 1 and Component 2 and then adding Component 3. After reaction at 37° C. for 2 hours, […] consisting of streptavidin-XL665 and europium-labeled anti-phosphotyrosine antibody provided by Cisbio was added to the enzyme reaction solution and reacted at room temperature for 1 hour. Finally, the ratio of fluorescence values at 615 nm and 665 nm was obtained using the Envision equipment from Perkin-Elmer to quantitatively measure the enzyme activity and confirmed the inhibitory ability of the compounds.

[2] = target: T2, Epidermal growth factor receptor [DEL746-750,T790M,C797S] (Homo sapiens, UniProt P00533, C797S/DEL746-750/T790M); assay: as above
T2 construct: gene EGFR
Procedure: as §1

T1 sequence (P00533 with tags, fused parts or gaps DEL746-750/T790M limits assumed): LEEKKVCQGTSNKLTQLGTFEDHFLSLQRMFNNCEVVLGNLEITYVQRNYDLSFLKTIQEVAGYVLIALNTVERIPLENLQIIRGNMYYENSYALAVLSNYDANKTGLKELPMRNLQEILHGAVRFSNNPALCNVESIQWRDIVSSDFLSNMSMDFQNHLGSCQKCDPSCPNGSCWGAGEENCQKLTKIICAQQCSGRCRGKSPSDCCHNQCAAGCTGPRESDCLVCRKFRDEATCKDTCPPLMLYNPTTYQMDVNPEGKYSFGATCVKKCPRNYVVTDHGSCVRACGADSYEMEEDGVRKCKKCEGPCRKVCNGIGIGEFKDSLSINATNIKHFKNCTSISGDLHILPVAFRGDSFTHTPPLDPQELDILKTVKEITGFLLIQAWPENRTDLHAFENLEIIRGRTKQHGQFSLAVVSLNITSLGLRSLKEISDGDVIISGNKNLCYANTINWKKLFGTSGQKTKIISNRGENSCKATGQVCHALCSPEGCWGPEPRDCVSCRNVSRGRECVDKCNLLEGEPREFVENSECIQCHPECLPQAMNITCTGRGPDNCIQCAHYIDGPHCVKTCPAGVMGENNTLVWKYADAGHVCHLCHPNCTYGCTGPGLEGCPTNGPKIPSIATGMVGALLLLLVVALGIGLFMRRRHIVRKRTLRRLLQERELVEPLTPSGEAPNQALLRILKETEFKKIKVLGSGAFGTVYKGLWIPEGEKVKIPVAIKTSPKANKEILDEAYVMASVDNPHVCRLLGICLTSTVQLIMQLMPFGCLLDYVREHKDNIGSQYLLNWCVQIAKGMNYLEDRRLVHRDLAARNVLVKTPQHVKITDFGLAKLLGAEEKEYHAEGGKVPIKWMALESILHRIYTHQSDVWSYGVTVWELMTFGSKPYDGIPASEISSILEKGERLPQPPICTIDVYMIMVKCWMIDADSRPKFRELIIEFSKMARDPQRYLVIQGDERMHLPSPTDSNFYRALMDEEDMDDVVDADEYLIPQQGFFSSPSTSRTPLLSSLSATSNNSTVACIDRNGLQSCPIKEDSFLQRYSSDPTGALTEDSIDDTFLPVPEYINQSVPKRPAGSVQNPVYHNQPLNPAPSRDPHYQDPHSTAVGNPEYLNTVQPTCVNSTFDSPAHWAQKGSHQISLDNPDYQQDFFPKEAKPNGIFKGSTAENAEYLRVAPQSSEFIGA
T2 sequence (P00533 with tags, fused parts or gaps C797S/DEL746-750/T790M limits assumed): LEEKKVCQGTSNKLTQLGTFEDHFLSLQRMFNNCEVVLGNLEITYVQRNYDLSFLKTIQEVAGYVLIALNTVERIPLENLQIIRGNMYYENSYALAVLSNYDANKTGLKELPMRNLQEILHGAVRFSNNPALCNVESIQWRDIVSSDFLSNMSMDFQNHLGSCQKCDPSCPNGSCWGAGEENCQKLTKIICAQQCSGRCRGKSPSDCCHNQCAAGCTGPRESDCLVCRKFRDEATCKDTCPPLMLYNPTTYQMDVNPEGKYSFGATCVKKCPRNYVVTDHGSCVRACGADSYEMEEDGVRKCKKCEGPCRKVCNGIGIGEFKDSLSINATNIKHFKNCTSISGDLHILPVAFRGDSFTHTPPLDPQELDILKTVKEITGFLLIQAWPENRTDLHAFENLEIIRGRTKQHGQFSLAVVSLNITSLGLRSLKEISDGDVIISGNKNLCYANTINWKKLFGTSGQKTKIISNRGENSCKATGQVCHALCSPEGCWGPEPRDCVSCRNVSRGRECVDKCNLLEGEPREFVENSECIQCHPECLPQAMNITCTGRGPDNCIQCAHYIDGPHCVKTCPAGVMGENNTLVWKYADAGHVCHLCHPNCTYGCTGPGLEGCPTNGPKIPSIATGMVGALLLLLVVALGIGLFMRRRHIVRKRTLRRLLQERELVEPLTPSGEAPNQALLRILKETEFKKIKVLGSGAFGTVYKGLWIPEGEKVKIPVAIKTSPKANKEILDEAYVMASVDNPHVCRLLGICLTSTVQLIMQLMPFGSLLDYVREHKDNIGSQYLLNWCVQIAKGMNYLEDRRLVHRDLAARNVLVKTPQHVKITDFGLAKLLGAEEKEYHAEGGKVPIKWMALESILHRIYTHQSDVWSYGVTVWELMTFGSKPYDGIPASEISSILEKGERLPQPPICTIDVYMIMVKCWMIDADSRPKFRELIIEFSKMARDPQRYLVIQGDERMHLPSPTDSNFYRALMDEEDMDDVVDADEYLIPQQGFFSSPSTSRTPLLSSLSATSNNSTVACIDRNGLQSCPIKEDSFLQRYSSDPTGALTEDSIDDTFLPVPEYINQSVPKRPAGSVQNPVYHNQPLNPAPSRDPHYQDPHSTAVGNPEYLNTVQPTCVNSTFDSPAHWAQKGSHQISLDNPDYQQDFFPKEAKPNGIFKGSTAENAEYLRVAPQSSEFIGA

IC50 [1] [nM] | IC50 [2] [nM] | SMILES
91 | 50 | CCC(=O)N1CCc2cccc(Nc3nc(Nc4ccc(N5CCC(N6CCN(C)CC6)CC5)cc4OC)ncc3Cl)c21 [US20240352000, Example 14]
73 | 56 | COc1cc(N2CCC(N3CCN(C)CC3)CC2)ccc1Nc1ncc(Cl)c(Nc2cccc3c2N(C(C)=O)CCC3)n1 [US20240352000, Example 15]
 | < 1 | COc1cc(N2CCC(N3CCN(C)CC3)CC2)ccc1Nc1ncc(Cl)c(Nc2cccc3c2N(C(C)=O)CC3)n1 [US20240352000, Example 12]

The next lines start with the compound.

SMILES | IC50 [1] [nM] | IC50 [2] [nM]
CCS(=O)(=O)N1CCc2cccc(Nc3nc(Nc4ccc(N5CCC(N6CCN(C)CC6)CC5)cc4OC)ncc3Cl)c21 [US20240352000, Example 13] | < 1 | 
COc1cc(N(C)CCN(C)C)ccc1Nc1ncc(Cl)c(Nc2cccc3c2N(S(C)(=O)=O)CC3)n1 [US20240352000, Example 3] |  | < 1
COc1cc(N2CCC(N3CCNCC3)CC2)ccc1Nc1ncc(Cl)c(Nc2cccc3c2N(S(C)(=O)=O)CC3)n1 [US20240352000, Example 17] |  | < 1
